Key:
[1] = PP-LFER solute descriptor determination from GC retention and partition coefficient data; assay type: physicochemical; conditions: for Solute descriptor L (logarithmic hexadecane/air partition coefficient, KHxd/air): 25 °C, updated in the iterative calculation; for Solute descriptor S (dipolarity/polarizability parameter): final adjusted value, shared within a PFAS group
Source text: The GC columns used were, from low to high polarity, HP-5ms Ultra Inert (poly[5% phenyl/95% methyl]siloxane equivalent; Agilent Technologies, Santa Clara, CA), DB-200 (poly[35% trifluoropropyl/65% methyl]siloxane; Agilent Technologies), DB-225ms (poly[50% cyanopropylphenyl/50% methyl]siloxane equivalent; Agilent Technologies), and SolGel-WAX (polyethylene glycol; Trajan, Ringwood, Australia). Column dimensions were all 30 m × 0.25 mm i.d. with a coating thickness of 0.25 μm.
The method for GC retention time measurements follows that of a previous study.[18] Briefly, a 7890A/5975C GC/MS instrument (Agilent Technologies) equipped with an MPS2 autosampler and CIS4 injector (Gerstel, Mülheim an der Ruhr, Germany) was used for all measurements. For each column, isothermal retention times were measured at four temperatures in the range of 30–120 °C to cover all target compounds. The temperature at the injector and transfer line was fixed at 120 °C. The carrier gas was He at a flow rate of 1.2 mL/min. Compounds were introduced into the GC by injecting either headspace (100–250 μL) above the pure compound or solution in acetone (1 μL). Split injections were performed with a split ratio of 20–250. Column dead time (t0) was determined by injecting air and measuring Ar (m/z 40). From the measured retention time (t), the retention factor (k) was calculated as k = (t–t0)/t0. Measurements with t < t0 + 0.1 min were considered too short and discarded. For each column and temperature, k values were obtained for 29–52 PFAS and 29–48 reference compounds.
The standard procedure for solute descriptor determination was as follows. First, the system parameters in eq 1 were calibrated for each column (or partition system) and temperature by MLR using log k (or log K) data and solute descriptors for reference compounds. Dimethylformamide, 1-pentylamine, dimethylsulfoxide, and dodecamethylcyclohexasiloxane (D6) were removed from the log k data sets, because they frequently appeared as outliers (>3 SD) of the PP-LFER model fit. Reference data sets for hexadecane/water partition coefficients (KHxd/w),[21]Kow,[22] and octanol/air partition coefficients (Koa)[23] were taken from the cited references and amended with data for organosilicon compounds.[24],[25] Similar to PFAS, organosilicon compounds have weak van der Waals interaction properties[9] and it may be beneficial to include them in reference data sets. The solute descriptors for PFAS were then back-calculated by using the calibrated PP-LFER equations. Of the five descriptors, V can be calculated from the molecular structure[26] (note: the fragment value for F from Goss et al.[11] was used), and L was available for the PFAS studied.[18] Thus, the left side of eq 2 was known, and MLR was performed to obtain S, A, and B on the right side. [drawing 2] 2 To determine the three descriptors, a minimum of three k and K data are required for a given PFAS compound. The data used here were: k measured for 60 PFAS in this study, KHxd/w for 21 PFAS,[5]Kow for 12 PFAS (see the Results and Discussion section), and Koa for 3 PFAS.[11]
Key to the accurate determination of the polar interaction descriptors is the availability of K data for partition systems with water as a partition phase because water is a strong H-bond donor and acceptor phase and thus the corresponding K values are sensitive to the H-bonding properties of the solute.[27] In particular, at least one solvent/water or air/water partition coefficient is required to determine B because there is no commonly used GC phase that is a significant H-bond donor. In the data set, KHxd/w is sensitive to both A and B and Kow is sensitive to B. However, KHxd/w and Kow data are not available for all PFAS. To increase the number of PFAS for which descriptors can be determined, the following assumptions were made. […]

[2] = set-up: method as in PMID 18800530; conditions: 25 °C; batch partition method (BP); ref [4]; cited from earlier work
[3] = Octanol/water partition coefficient (Kow), shared-headspace method; assay type: physicochemical; conditions: 25 °C; shared-headspace method (SH)
Description: (§1) Kow was measured for nine PFAS (Table 2) to supplement the data set for descriptor determination. The nine PFAS were selected based on measurement feasibility and structural diversity. The shared-headspace or batch partition method was used as described previously.[5] Details of the methods are given in SI-1.

[4] = Octanol/water partition coefficient (Kow), batch partition method; assay type: physicochemical; conditions: 25 °C; batch partition method (BP)
Description: as §1

SMILES | Solute descriptor L (logarithmic hexadecane/air partition coefficient, KHxd/air) [1] | Solute descriptor S (dipolarity/polarizability parameter) [1] | Log Kow, Mean ± SD [2] | Measured Log Kow, Mean ± SD [3] | Measured Log Kow, Mean ± SD [4]
OCCC(F)(F)C(F)(F)C(F)(F)C(F)(F)F [4:2 FTOH, 1H,1H,2H,2H-Perfluorohexan-1-ol] | 2.421 | 0.35 | 3.30 ± 0.04 | – | –
OCCC(F)(F)C(F)(F)C(F)(F)C(F)(F)C(F)(F)C(F)(F)F [6:2 FTOH, 1H,1H,2H,2H-Perfluorooctan-1-ol] | 2.997 | 0.35 | 4.54 ± 0.01 | – | –
OCC(F)(F)C(F)(F)C(F)(F)C(F)(F)C(F)(F)C(F)(F)C(F)(F)F [7:1 FTOH, 1H,1H-Perfluorooctan-1-ol] | 2.715 | 0.30 | – | 5.01 ± 0.02 | –
OCCC(F)(F)C(F)(F)C(F)(F)C(F)(F)C(F)(F)C(F)(F)C(F)(F)C(F)(F)F [8:2 FTOH, 1H,1H,2H,2H-Perfluorodecan-1-ol] | 3.554 | 0.35 | 5.58 ± 0.06 | – | –
CNS(=O)(=O)C(F)(F)C(F)(F)C(F)(F)C(F)(F)F [MeFBSA, N-Methylperfluorobutanesulfonamide] | 3.566 | 0.88 | – | – | 3.51 ± 0.00
CN(CCO)S(=O)(=O)C(F)(F)C(F)(F)C(F)(F)C(F)(F)F [MeFBSE, N-Methylperfluorobutanesulfonamidoethanol] | 4.769 | 1.00 | – | – | 3.11 ± 0.04
NS(=O)(=O)C(F)(F)C(F)(F)C(F)(F)C(F)(F)F [PFBSA, Perfluorobutanesulfonamide] | 3.607 | 0.96 | – | – | 2.85 ± 0.02
